Measured values taken from patent US5368707A, “Convenient determination of trace lead in whole blood and other fluids” (priority 1993, dated 1994).
“Also recorded” adds a separate entry of the source.

Key:
isocitrate dehydrogenase = target: T1, isocitrate dehydrogenase (Sus scrofa, UniProt P33198); assay: Effect of complexing agents and other assay components on isocitrate dehydrogenase activity and its lead inhibition; format: biochemical, pig
T1 construct: purchased Sigma, St. Louis, Mo; ICD Type VI
T1 sequence (P33198 9-421): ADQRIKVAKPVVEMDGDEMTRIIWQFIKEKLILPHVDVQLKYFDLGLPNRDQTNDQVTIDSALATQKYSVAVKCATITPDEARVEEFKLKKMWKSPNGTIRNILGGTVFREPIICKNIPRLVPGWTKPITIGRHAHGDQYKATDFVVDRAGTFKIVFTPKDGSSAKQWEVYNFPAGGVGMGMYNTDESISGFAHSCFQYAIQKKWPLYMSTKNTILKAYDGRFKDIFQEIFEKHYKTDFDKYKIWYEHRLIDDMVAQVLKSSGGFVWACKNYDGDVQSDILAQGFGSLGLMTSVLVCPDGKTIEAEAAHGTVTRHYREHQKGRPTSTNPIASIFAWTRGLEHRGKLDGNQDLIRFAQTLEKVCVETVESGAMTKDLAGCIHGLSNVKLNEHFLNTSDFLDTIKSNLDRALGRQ
Excerpt: Any agent used for displacing lead from the EDTA complex must not interfere with the function or activity of the enzyme employed for detection. […] Other auxiliary complexing agents may also be useful, including iminodiacetate, citrate and lithium ion. Li^+1 is known to weaken lead ion binding to bovine serum albumin and is contemplated to be effective in displacing Pb^2+ from the complex.
To solve this problem, the inventors have employed strong chelating reagents to sequester lead ion from interfering blood proteins subsequent to release of the lead from the selected chelating reagent.

alcohol dehydrogenase = tested on: alcohol dehydrogenase
Method: A bioelectrode was prepared from colloidal gold adsorbed alcohol dehydrogenase according the procedure of Example 2 for ICD. Measurements were made in the microcell as described in Example 1 using various concentrations of mercury.

[1] = colloidal gold/ADH bioelectrode

Compound | effect on ICDH activity / lead inhibition of ICDH (isocitrate dehydrogenase) | further results
O=C(O)[C@@H](S)[C@@H](S)C(=O)O [DMSA, meso 2,3-dimercaptosuccinic acid] | do not interfere with electrochemical detection of lead by ICDH inhibition; also recorded: the activity, stability and lead inhibition are not adversely affected | –
O=C(O)CN(CCN(CC(=O)O)CC(=O)O)CC(=O)O [EDTA] | adversely affect lead ion inhibition of isocitric dehydrogenase | –
[Mg+2] [Mg^+2] | – | effectiveness as cofactor of isocitric dehydrogenase (isocitrate dehydrogenase; compared with Mn2+, millimolar concentrations): equally effective
C[n+]1c2ccccc2nc2ccccc21 [NMP-MS, N-methylphenazine methosulfate] | interfered with inhibition of the enzyme by added lead ion | –
CC(=O)O [acetate] | the activity, stability and lead inhibition are not adversely affected | –
c1ccc(-c2ccccc2)cc1 [biphenyl] | do not interfere with electrochemical detection of lead by ICDH inhibition | –
c1ccc(-c2ccccn2)nc1 [dipyridyl] | the activity, stability and lead inhibition are not adversely affected | –
c1cnc2c(c1)ccc1cccnc12 [o-phenanthroline] | do not interfere with electrochemical detection of lead by ICDH inhibition; also recorded: the activity, stability and lead inhibition are not adversely affected | –
mercury ion | – | detection range (alcohol dehydrogenase; colloidal gold adsorbed ADH biosensor): nanomolar range; amperometric response (alcohol dehydrogenase; [1]): linear response in at nanomolar levels; reversibility of inhibition (alcohol dehydrogenase; [1]): irreversible; specificity of inhibition (alcohol dehydrogenase; in the presence of added lead ion): specific for mercury in the presence of added lead ion
